Measured values reported in patent US20230399342A1 (Incyte Corporation, priority 2022, published 2023).
pIC50: −log10 of the molar value.

Experiments:
DGKα = DGKα (Homo sapiens (Human), UniProt P23743); test: In vitro DGKα inhibition assay (ADP-Glo); format: biochemical; details: His-tagged human recombinant enzyme, 0.1 nM DGKα, 50 μM ATP, 20 μM DLG, 90 minute incubation
Protocol: (§1) The DGKα and DGKξ biochemical reactions were performed using His-tagged human recombinant enzymes (Signal Chem, DGKα, #D21-1OBH; DGKξ, #D30-10H)) and DLG (Dilauroyl-sn-glycerol) lipid substrate (Signal Chem, #D430-59). ADP-Glo assay was performed using ADP-Glog™ kinase Assay kit (Promega, #V9104). The reactions were carried out in assay buffer containing 40 mM Tris, pH 7.5, 0.1% CHAPS, 0.1% Prionex, 40 mM NaCl, 5 mM MgCl2, 1 mM CaCl2, and 1 mM DTT. DGKα reactions contained 0.1 nM DGKα, 50 μM ATP, and 20 μM DLG. And DGKC reactions contained 0.4 nM DGK, 30 μM ATP, and 20 μM DLG.
(§2) For compound inhibition studies, 40 nL test compound in DMSO was added to wells of white polystyrene plates in 384-well (Greiner, #784075) or 1536-well format (Greiner, #782075). Compounds were added with top concentration of 2 mM with 11 point, 3-fold dilution series. Enzyme solution (contains 2×DGK enzyme concentration in Ix assay buffer) was added to the plate in 2 μL/well volume, followed by 2 μL/well of substrate solution (contains 2×concentration of ATP and DLG substrate in Ix assay buffer). Plates were then centrifuged for 1 min at 1200 RPM and sealed or lidded. For 4 μL reaction volume, test compounds were therefore diluted 100× to final top concentration of 20 μM. After 90 minute incubation, reactions were quenched by addition of 2 μL/well Promega ADP-Glo Reagent, followed by centrifugation and lidding. After 60 min incubation, 2 μL/well Promega Kinase Detection Reagent was added, plates centrifuged, and incubated for 30 min. Plates were then read using Luminescence method on BMG PHERAstar FSX plate reader. Percent inhibition was calculated and IC50s were determined using 4-parameter fit in Genedata Screener. Labcyte Echo acoustic dispenser was used for compound addition, and Formulatrix Tempest liquid handler was used for all reagent dispenses.

DGKζ = DGKζ (Homo sapiens (Human), UniProt Q13574); test: In vitro DGKζ inhibition assay (ADP-Glo); format: biochemical; details: His-tagged human recombinant enzyme, 0.4 nM DGK, 30 μM ATP, 20 μM DLG, 90 minute incubation
Protocol: as §1, §2

Sequence of DGKα (P23743 whole entry): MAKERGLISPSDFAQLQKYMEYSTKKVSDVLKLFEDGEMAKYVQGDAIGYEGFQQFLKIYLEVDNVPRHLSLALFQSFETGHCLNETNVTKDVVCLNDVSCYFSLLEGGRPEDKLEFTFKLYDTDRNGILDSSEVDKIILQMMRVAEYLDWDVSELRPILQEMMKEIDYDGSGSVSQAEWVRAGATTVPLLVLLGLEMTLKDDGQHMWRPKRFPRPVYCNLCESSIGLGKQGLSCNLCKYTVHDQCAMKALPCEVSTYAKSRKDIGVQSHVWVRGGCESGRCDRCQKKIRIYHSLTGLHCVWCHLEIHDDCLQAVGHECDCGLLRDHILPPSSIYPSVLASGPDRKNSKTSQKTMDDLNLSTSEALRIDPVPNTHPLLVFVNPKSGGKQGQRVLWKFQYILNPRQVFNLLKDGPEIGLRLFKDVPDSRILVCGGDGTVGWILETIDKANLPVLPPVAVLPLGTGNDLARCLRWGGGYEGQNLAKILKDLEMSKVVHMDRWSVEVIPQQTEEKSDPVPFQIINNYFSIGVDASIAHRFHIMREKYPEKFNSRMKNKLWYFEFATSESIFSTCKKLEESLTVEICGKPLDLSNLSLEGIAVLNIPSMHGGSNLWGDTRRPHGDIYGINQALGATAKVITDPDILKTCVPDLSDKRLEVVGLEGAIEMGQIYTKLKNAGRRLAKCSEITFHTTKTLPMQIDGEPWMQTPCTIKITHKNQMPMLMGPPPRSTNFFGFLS
Sequence of DGKζ (Q13574 whole entry): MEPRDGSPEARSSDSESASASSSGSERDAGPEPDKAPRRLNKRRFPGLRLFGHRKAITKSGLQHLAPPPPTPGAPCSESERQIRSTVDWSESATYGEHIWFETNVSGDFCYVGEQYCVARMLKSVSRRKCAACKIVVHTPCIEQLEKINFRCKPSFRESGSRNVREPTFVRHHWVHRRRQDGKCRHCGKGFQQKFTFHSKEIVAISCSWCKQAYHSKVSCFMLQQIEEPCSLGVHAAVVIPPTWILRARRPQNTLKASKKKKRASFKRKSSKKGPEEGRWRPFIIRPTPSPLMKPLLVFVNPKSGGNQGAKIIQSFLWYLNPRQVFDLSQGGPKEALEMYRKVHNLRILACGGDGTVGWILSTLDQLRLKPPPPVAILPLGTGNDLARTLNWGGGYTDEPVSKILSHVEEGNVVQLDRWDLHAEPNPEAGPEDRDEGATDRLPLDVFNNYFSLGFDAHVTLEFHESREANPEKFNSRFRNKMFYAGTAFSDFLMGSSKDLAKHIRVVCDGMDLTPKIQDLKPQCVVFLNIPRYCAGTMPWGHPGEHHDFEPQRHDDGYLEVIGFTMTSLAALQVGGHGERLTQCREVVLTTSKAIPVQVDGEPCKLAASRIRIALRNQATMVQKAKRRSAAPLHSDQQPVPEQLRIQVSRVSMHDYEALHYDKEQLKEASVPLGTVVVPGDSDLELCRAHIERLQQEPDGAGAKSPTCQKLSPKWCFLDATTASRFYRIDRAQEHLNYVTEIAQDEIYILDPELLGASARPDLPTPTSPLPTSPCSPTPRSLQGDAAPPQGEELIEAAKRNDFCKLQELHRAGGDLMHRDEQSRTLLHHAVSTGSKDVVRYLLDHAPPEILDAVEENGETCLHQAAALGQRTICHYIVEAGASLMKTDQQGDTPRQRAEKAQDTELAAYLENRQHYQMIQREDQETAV

SMILES | pIC50 (DGKα) | pIC50 (DGKζ)
CC[C@@H]1CN(c2nc3nncn3c3c2nc(C)n3C[C@@H]2CCCO2)[C@@H](C)CN1[C@H](c1ccc(C(F)(F)F)cc1)C(C)C [Example 128, 4-((2S,5R)-5-Ethyl-2-methyl-4-((S)-2-methyl-1-(4-(trifluoromethyl)phenyl)propyl)piperazin-1-yl)-2-methyl-1-(((S)-tetrahydrofuran-2-yl)methyl)-1H-[1,2,4]triazolo[3,4-b]purine] | ≥ 7.70 | ≥ 7.70
[2H]c1nc2c(N3C[C@@H](CC)N(C(c4ccc(F)cc4)c4ccc(F)cc4)C[C@@H]3CC)nc3nncn3c2n1CCN(C)C [Example 36, 2-(4-((2S,5R)-4-(Bis(4-fluorophenyl)methyl)-2,5-diethylpiperazin-1-yl)-1H-[1,2,4]triazolo[3,4-b]purin-1-yl-2-d)-N,N-dimethylethan-1-amine] | ≥ 7.70 | ≥ 7.70
Cc1nc2c(N3C[C@@H](C)N(C(c4ccc(F)c(C(F)F)c4)C(C)C)C[C@@H]3C)nc3nncn3c2n1C[C@@H]1CCCO1 (stereo partly drawn) [Example 82, 4-((2S,5R)-4-(1-(3-(Difluoromethyl)-4-fluorophenyl)-2-methylpropyl)-2,5-dimethylpiperazin-1-yl)-2-methyl-1-(((S)-tetrahydrofuran-2-yl)methyl)-1H-[1,2,4]triazolo[3,4-b]purine] | ≥ 7.70 | ≥ 7.70
Cc1nc2c(N3C[C@@H](C)N(C(c4ccc(C(F)(F)F)c(Cl)c4)C4CC(F)(F)C4)C[C@@H]3C)nc3nncn3c2n1C[C@@H]1CCCO1 (stereo partly drawn) [Example 58, 4-((2S,5R)-4-((3-Chloro-4-(trifluoromethyl)phenyl)(3,3-difluorocyclobutyl)methyl)-2,5-dimethylpiperazin-1-yl)-2-methyl-1-(((S)-tetrahydrofuran-2-yl)methyl)-1H-[1,2,4]triazolo[3,4-b]purine] | ≥ 7.70 | ≥ 7.70
C[C@@H]1CN(c2nc3nncn3c3c2ncn3CCN(C)C)[C@@H](C)CN1C(c1ccc(C(F)(F)F)cn1)c1ccc(C(F)(F)F)cn1 [Example 112, 2-(4-((2S,5R)-4-(Bis(5-(trifluoromethyl)pyridin-2-yl)methyl)-2,5-dimethylpiperazin-1-yl)-1H-[1,2,4]triazolo[3,4-b]purin-1-yl)-N,N-dimethylethan-1-amine] | ≥ 7.70 | ≥ 7.70

More lines, now with the values ahead:

pIC50 (DGKα) | pIC50 (DGKζ) | SMILES
≥ 7.70 | ≥ 7.70 | C[C@@H]1CN(c2nc3nncn3c3c2ncn3C[C@@H]2CCCO2)[C@@H](C)CN1[C@H](c1ccc(F)cc1)c1ccc(OC(F)(F)F)cn1 [Example 27, 4-((2S,5R)-4-((R)-(4-fluorophenyl)(5-(trifluoromethoxy)pyridin-2-yl)methyl)-2,5-dimethylpiperazin-1-yl)-1-(((S)-tetrahydrofuran-2-yl)methyl)-1H-[1,2,4]triazolo[3,4-b]purine]
≥ 7.70 | ≥ 7.70 | Cc1nc2c(N3C[C@@H](C)N([C@@H](c4cccc(C(F)(F)F)c4)C(C)C)C[C@@H]3C)nc3nncn3c2n1C[C@@H]1CCCO1 [Example 70, 4-((2S,5R)-2,5-dimethyl-4-((R)-2-methyl-1-(3-(trifluoromethyl)phenyl)propyl)piperazin-1-yl)-2-methyl-1-(((S)-tetrahydrofuran-2-yl)methyl)-1H-[1,2,4]triazolo[3,4-b]purine]
≥ 7.70 | ≥ 7.70 | Cc1nc2c(N3C[C@@H](C)N([C@H](c4cccc(F)c4)C(C)C)C[C@@H]3C)nc3nncn3c2n1C[C@@H]1CCCO1 [Example 94, 4-((2S,5R)-4-((S)-1-(3-Fluorophenyl)-2-methylpropyl)-2,5-dimethylpiperazin-1-yl)-2-methyl-1-(((S)-tetrahydrofuran-2-yl)methyl)-1H-[1,2,4]triazolo[3,4-b]purine]
≥ 7.70 | ≥ 7.70 | Cc1nc2c(N3C[C@@H](C)N(C(c4ccc(F)cc4)c4ccc(F)cc4)C[C@@H]3C)nc3nncn3c2n1C[C@@H]1CCCO1 [Example 19, 4-((2S,5R)-4-(Bis(4-fluorophenyl)methyl)-2,5-dimethylpiperazin-1-yl)-2-methyl-1-(((S)-tetrahydrofuran-2-yl)methyl)-1H-[1,2,4]triazolo[3,4-b]purine]
